Experimental findings from ChEMBL document CHEMBL1139600, “Synthesis, in vivo and in vitro biological activity of novel azaline B analogs” (Bioorg Med Chem Lett, 2005) are described below.

Broadly, the IC50 is the concentration that inhibits the measured activity by half. Lower therefore signals inhibition by little substance.

Assay [1] has as its target T1, Gonadotropin-releasing hormone receptor (Homo sapiens, UniProt P30968).
T1 sequence (P30968 whole entry): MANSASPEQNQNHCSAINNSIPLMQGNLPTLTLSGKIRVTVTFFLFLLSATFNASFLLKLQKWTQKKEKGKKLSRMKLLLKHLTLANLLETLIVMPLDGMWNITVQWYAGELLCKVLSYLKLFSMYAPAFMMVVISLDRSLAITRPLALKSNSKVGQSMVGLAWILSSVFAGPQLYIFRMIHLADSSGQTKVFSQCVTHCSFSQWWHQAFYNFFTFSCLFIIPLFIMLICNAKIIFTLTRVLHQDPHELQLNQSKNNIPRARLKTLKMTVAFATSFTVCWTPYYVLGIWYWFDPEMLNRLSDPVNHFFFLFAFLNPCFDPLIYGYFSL
Description: (§1) In vitro inhibition of human gonadotropin-releasing hormone expressed in HEK293 cells. The assay is classed as cell-based.

In assay [2] the target is T1, Gonadotropin-releasing hormone receptor. The assay is described as §1. Format: cell-based. The source holds these as a separate data set.

The structures appear in SMILES notation. *1 amine or outer side, *2 acyl side, *3 side chain or, on linkers, in order; H or OH if unused. Where a SMILES comes first, the peptide text is derived from it. [ ]: non-standard residue; d: D form. Phe(4-NH(5-NH2triazol-3-yl)) = Nc1nc(Nc2ccc(C[C@H](N)C(=O)O)cc2)n[nH]1; X1 = Nc1nc(Nc2ccc(C[C@@H](N[*:1])C(=O)[*:2])cc2)n[nH]1; dPhe(4-Cl) = N[C@H](Cc1ccc(Cl)cc1)C(=O)O; d2Nal = N[C@H](Cc1ccc2ccccc2c1)C(=O)O; Lys(iPr) = CC(C)NCCCC[C@H](N)C(=O)O; d3Pal = N[C@H](Cc1cccnc1)C(=O)O

In the case of `CC(=O)N[C@H](Cc1ccc2ccccc2c1)C(=O)N[C@H](Cc1ccc(Cl)cc1)C(=O)N[C@H](Cc1cccnc1)C(=O)N[C@@H](CO)C(=O)N[C@@H](Cc1ccc(NC(=O)NC(=O)[C@H](N)CC(N)=O)cc1)C(=O)N[C@H](Cc1ccc(NC(N)=O)cc1)C(=O)N[C@@H](CC(C)C)C(=O)N[C@@H](CCCCNC(C)C)C(=O)N1CCC[C@H]1C(=O)N[C@H](C)C(=O)O`, the half-inhibitory concentration (IC50) in assay [1] is 2.22 nM; in assay [2] it was 2 nM.

On to `CC(=O)N[C@H](Cc1ccc2ccccc2c1)C(=O)N[C@H](Cc1ccc(Cl)cc1)C(=O)N[C@H](Cc1cccnc1)C(=O)N[C@@H](CO)C(=O)N[C@@H](Cc1ccc(NC(=O)C2CCNC(=O)N2)cc1)C(=O)N[C@H](Cc1ccc(NC(N)=O)cc1)C(=O)N[C@@H](CC(C)C)C(=O)N[C@@H](CCCCNC(C)C)C(=O)N1CCC[C@H]1C(=O)N[C@H](C)C(N)=O` (some centres undefined), for which the half-inhibitory concentration (IC50) in assay [1] was 1.78 nM; in assay [2] it was 2 nM. `CC(=O)N[C@H](Cc1ccc2ccccc2c1)C(=O)N[C@H](Cc1ccc(Cl)cc1)C(=O)N[C@H](Cc1cccnc1)C(=O)N[C@@H](CO)C(=O)N[C@@H](Cc1ccc(Nc2n[nH]c(N)n2)cc1)C(=O)N[C@H](Cc1ccc(Nc2n[nH]c(N)n2)cc1)C(=O)N[C@@H](CC(C)C)C(=O)N[C@@H](CCCCNC(C)C)C(=O)N1CCC[C@H]1C(=O)N[C@H](C)C(N)=O` (Ac-[d2Nal][dPhe(4-Cl)][d3Pal]S[Phe(4-NH(5-NH2triazol-3-yl))][X1]L[Lys(iPr)]P[dA]-NH2) showed a half-inhibitory concentration (IC50) in assay [2] of 1.26 nM.

As for `CC(=O)N[C@H](Cc1ccc2ccccc2c1)C(=O)N[C@H](Cc1ccc(Cl)cc1)C(=O)N[C@H](Cc1cccnc1)C(=O)N[C@@H](CO)C(=O)N[C@@H](Cc1ccc(NCC(=O)n2cc(C)c(=O)[nH]c2=O)cc1)C(=O)N[C@H](Cc1ccc(NC(N)=O)cc1)C(=O)N[C@@H](CC(C)C)C(=O)N[C@@H](CCCCNC(C)C)C(=O)N1CCC[C@H]1C(=O)N[C@H](C)C(N)=O`, the half-maximal inhibitory concentration (IC50) was 2.46 nM in assay [1] and 2.51 nM in assay [2]. For `CC(=O)N[C@H](Cc1ccc2ccccc2c1)C(=O)N[C@H](Cc1ccc(Cl)cc1)C(=O)N[C@H](Cc1cccnc1)C(=O)N[C@@H](CO)C(=O)N[C@@H](Cc1ccc(NC(=O)[C@@H]2CCC(=O)N2)cc1)C(=O)N[C@H](Cc1ccc(NC(N)=O)cc1)C(=O)N[C@@H](CC(C)C)C(=O)N[C@@H](CCCCNC(C)C)C(=O)N1CCC[C@H]1C(=O)N[C@H](C)C(=O)O` the same measures were 1.85 nM and 2 nM. The matching figures for `CC(=O)N[C@H](Cc1ccc2ccccc2c1)C(=O)N[C@H](Cc1ccc(Cl)cc1)C(=O)N[C@H](Cc1cccnc1)C(=O)N[C@@H](CO)C(=O)N[C@@H](Cc1ccc(NC(=O)C(N)CCN)cc1)C(=O)N[C@H](Cc1ccc(NC(N)=O)cc1)C(=O)N[C@@H](CC(C)C)C(=O)N[C@@H](CCCCNC(C)C)C(=O)N1CCC[C@H]1C(=O)N[C@H](C)C(=O)O` (some centres undefined): 3.53 nM and 3.16 nM. The matching figures for `CC(C)C[C@H](NC(=O)[C@@H](Cc1ccc(NC(N)=O)cc1)NC(=O)[C@H](Cc1ccc(NC(=O)C(N)CN)cc1)NC(=O)[C@H](CO)NC(=O)[C@@H](Cc1cccnc1)NC(=O)[C@@H](Cc1ccc(Cl)cc1)NC(=O)[C@H](N)Cc1ccc2ccccc2c1)C(=O)N[C@@H](CCCCNC(C)C)C(=O)N1CCC[C@H]1C(=O)N[C@H](C)C(=O)O` (some centres undefined): 2.82 nM and 3.16 nM. On to `CC(=O)N[C@H](Cc1ccc2ccccc2c1)C(=O)N[C@H](Cc1ccc(Cl)cc1)C(=O)N[C@H](Cc1cccnc1)C(=O)N[C@@H](CO)C(=O)N[C@@H](Cc1ccc(NC(=O)NC(=O)[C@H](N)CCC(N)=O)cc1)C(=O)N[C@H](Cc1ccc(NC(N)=O)cc1)C(=O)N[C@@H](CC(C)C)C(=O)N[C@@H](CCCCNC(C)C)C(=O)N1CCC[C@H]1C(=O)N[C@H](C)C(=O)O`, for which the concentration for half-maximal inhibition (IC50) in assay [1] is 6.86 nM; in assay [2], 6.31 nM.

As to `CC(=O)N[C@H](Cc1ccc2ccccc2c1)C(=O)N[C@H](Cc1ccc(Cl)cc1)C(=O)N[C@H](Cc1cccnc1)C(=O)N[C@@H](CO)C(=O)N[C@@H](Cc1ccc(NC(=O)C(N)CN)cc1)C(=O)N[C@H](Cc1ccc(NC(N)=O)cc1)C(=O)N[C@@H](CC(C)C)C(=O)N[C@@H](CCCCNC(C)C)C(=O)N1CCC[C@H]1C(=O)N[C@H](C)C(=O)O` (some centres undefined), the IC50 was 6.37 nM in assay [1] and 6.31 nM in assay [2]. The matching figures for `CC(=O)N[C@H](Cc1ccc2ccccc2c1)C(=O)N[C@H](Cc1ccc(Cl)cc1)C(=O)N[C@H](Cc1cccnc1)C(=O)N[C@@H](CO)C(=O)N[C@@H](Cc1ccc(NC(=O)NC(=O)[C@@H](N)CC(N)=O)cc1)C(=O)N[C@H](Cc1ccc(NC(N)=O)cc1)C(=O)N[C@@H](CC(C)C)C(=O)N[C@@H](CCCCNC(C)C)C(=O)N1CCC[C@H]1C(=O)N[C@H](C)C(=O)O`: 2.37 nM and 2.51 nM.
